Key:
[1] = target: T1, human NK1 receptor (Homo sapiens, UniProt P25103); test: NK1 functional assay (B), FLIPR inhibition of intracellular calcium release induced by Substance P; assay type: cell-based; conditions: U2OS cells transduced with BacMam virus expressing human NK1; ligand Substance P; read-out: binding potency pKi in the NK1 functional assay (B) (converted)
T1 construct: expressed in transfected cells; host or cells: human U2OS cells transiently transduced with recombinant BacMam virus
From the text: B) Measurement of NK Functional Potency:
Compounds of the invention were further characterised in a functional assay using FLIPR technology for the determination of their effect to inhibit the intracellular calcium release induced by interaction of NK receptors with its perspective ligands. Human U2OS cells transiently transduced with recombinant BacMam virus expressing human NK1, NK2 and NK3 receptors were used in the studies (see J. P. Condreay et al, Proc. Natl. Acad. Sci. USA 1999, 96(1): 127-132). Briefly, U20S cells were harvested from tissue culture flasks, re-suspended to a cell density of 200-300K/ml and mixed with recombinant BacMam virus carrying NKR gene in a virus/cell ratio of 1% (v/v). 10K-15K cells/well were then seeded in 384-well Greiner bio-one plate in culture medium (DMEM with 10% FBS), incubated overnight in 5% CO2 at 37° C. […] Finally, 10 uL/well of NKR ligands in assay buffer containing 0.1% BSA was added to the cells and fluorescence signal read on a FLIPR system. […] IC50 values of each compound were determined by an 11-point 3×-dilution inhibition curve. The potency each antagonist (fpKi) was calculated from plC50 by the Cheng-Prusoff equation using EC50 of ligand determined in a separate experiment.

[2] = target: T2, NK1 receptor (Meriones unguiculatus, UniProt Q5DUB1); test: Gerbil foot tapping model (GR73632-induced, icv); assay type: in vivo
T2 construct: from tissue; host or cells: living gerbil, central nervous system (icv agonist challenge)
From the text: The ability of the compounds of the invention to penetrate the central nervous system and to bind at the NK1 receptor may be determined using the gerbil foot tapping model as described by Rupniak & Williams, Eur. Jour. of Pharmacol., 1994.
Intracerebroventricular (icv) administration of the NK1 receptor agonist GR73632 (R. M. Hagan et al., Neuropeptides 1991, 19 (2), 127-135) a characteristic hind leg foot tapping (GFT) response in gerbils which can be inhibited by potent NK1 receptor antagonists. The gerbil foot tapping paradigm was carried out as follows; gerbils were dosed with compound of the invention, and following an appropriate pre-treatment time were anaesthetised using isofluorane/oxygen mixture. The skull was then exposed and 5 ul of GR73632 (3 pmol conc.) was injected by insertion of a cuffed 25G needle to a depth of 4 mm below bregma, directly into the lateral ventricle (intracerebroventricular dosing). Immediately following the injection, gerbils were placed individually into a clear observation box to recover.
Upon the gerbil regaining its righting reflex, the duration of repetitive hind foot tapping was recorded over a 5 minute period. The dose of the test compound required to inhibit by 50% the tapping induced by the NK1 agonist expressed as mg/kg is referred to as the ID50 values.

T2 sequence (Q5DUB1 whole entry): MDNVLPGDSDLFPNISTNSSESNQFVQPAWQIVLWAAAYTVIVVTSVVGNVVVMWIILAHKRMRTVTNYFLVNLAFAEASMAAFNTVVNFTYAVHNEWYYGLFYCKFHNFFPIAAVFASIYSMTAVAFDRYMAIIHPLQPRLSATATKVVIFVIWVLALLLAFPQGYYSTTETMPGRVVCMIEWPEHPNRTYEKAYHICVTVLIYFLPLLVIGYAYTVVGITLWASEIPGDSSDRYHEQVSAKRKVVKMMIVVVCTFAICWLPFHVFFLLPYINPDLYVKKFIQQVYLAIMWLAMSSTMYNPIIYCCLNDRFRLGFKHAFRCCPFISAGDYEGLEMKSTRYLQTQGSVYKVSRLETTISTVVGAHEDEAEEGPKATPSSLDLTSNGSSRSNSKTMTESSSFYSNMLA
T1 sequence (P25103 whole entry): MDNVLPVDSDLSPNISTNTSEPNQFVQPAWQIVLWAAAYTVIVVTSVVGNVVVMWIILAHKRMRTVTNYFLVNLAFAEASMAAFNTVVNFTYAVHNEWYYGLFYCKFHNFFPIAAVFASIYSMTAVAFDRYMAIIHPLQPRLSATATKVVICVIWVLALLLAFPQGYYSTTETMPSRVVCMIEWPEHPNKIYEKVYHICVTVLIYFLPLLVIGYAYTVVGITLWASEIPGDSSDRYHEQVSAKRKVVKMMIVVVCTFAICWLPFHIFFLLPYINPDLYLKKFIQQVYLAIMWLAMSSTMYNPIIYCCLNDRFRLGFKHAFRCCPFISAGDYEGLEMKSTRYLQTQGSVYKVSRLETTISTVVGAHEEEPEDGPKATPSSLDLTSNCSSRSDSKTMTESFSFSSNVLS

Ki [1] | Compound | GR73632-induced Foot Tapping behaviour ([2]; dose range of 0.1 to 10 mg/kg p.o.) | ED50 ([2]; po, read-out: ID50, dose required to inhibit by 50% the tapping induced by the NK1 agonist)
< 1 nM | Cc1cc(F)ccc1[C@H]1C[C@@]2(CCC(C(N)=O)N2)CCN1C(=O)N(C)[C@H](C)c1cc(C(F)(F)F)cc(C(F)(F)F)c1 (single isomer, unassigned; diastereoisomer 1) [Example 1] | – | –
– | Cc1cc(F)ccc1[C@H]1C[C@]2(CC[C@H](C(N)=O)N2)CCN1C(=O)N(C)[C@H](C)c1cc(C(F)(F)F)cc(C(F)(F)F)c1.Cl [Example 4, (2R,5S,7R)—N^8-{(1R)-1-[3,5-bis(trifluoromethyl)phenyl]ethyl}-7-(4-fluoro-2-methylphenyl)-N^8-methyl-1,8-diazaspiro[4.5]decane-2,8-dicarboxamide hydrochloride] | significantly attenuated | ~0.67 mg/kg

Source: patent US8367692B2, “Spiro (piperidine-4,2′-pyrrolidine)-1-(3,5-trifluoromethyl phenyl) methylcarboxamides as NK1 tachikynin receptor antagonists” (Glaxo Wellcome Manufacturing Pte Ltd, priority 2008, dated 2013)
